Converted amounts (≈) assume the structure as drawn.

One data set relates to S. aureus CART817. The experiment in a line: Antibacterial MIC, broth microdilution with resazurin. Type of data set: cell-based. Conditions: Staphylococcus aureus; S. aureus CART817, Gram-positive; read-out: MIC. The method, then:
(§1) The minimum inhibitory concentrations (MICs) were determined using a two-fold serial dilution method with MHB following the recommendations of the Clinical and Laboratory Standards Institute (CLSI [2012]; Elshikh et al. [2016]). In brief, serial two-fold dilutions of the samples in DMSO were mixed with MHB in a 96-well microplate. Then, 50 µL of bacteria suspension was added to each well, resulting in a final concentration of 1 × 10^4 colony-forming units/well. The plates were incubated at 35–37 °C for 18–24 hr. After incubation, 10 µL of 0.18% resazurin (Cat. No. R7017, Sigma-Aldrich, USA) was added to each well (Elshikh et al. [2016]). The MIC was assessed within 2–3 hr after the addition of resazurin. All antimicrobial assays were performed in triplicate, using vancomycin (Cat. No. SBR00001, Sigma-Aldrich, USA) and gentamicin (Cat. No. G1397, Sigma-Aldrich, USA) as standard controls.
For orientation: In broth dilution the organism is exposed to a series of concentrations in liquid medium.

In the next data set the test system is S. marcescent. Described as above. The class given is cell-based, Serratia marcescens. Conditions: Serratia marcescens, Gram-negative, read-out: MIC.
Excerpt: (§2) Methicillin-resistant Staphylococcus aureus (MRSA), methicillin-susceptible S. aureus (MSSA), and Gram-negative clinical isolates of bacteria [Escherichia coli (9637) and Serratia marcescens ATCC 13880] were used for this study. […] MSSA HBP10, MSSA LUU7, MSSA R113, S. aureus ONE9, and MSSA POB2 were isolated in Hawaiʻi (Gerken et al. [2021]). Mueller Hinton Broth (MHB, GTIN:00382902979630, Becton, Dickinson and Company, Franklin Lakes, NJ, USA) and Mueller Hinton Agar (MHA, GTIN:00382902252504, Becton, Dickinson and Company, Franklin Lakes, NJ, USA,) were used for bacterial inoculation. MRSA was a pathogen strain causing hospital-acquired infections in 1982. This strain easily acquires resistance to antibiotics, such as vancomycin. MSSA strains isolated from the Island of Hawaiʻi included: Honolʻii Beach Park (HBP10) carry the genes erm(C), aph(3′)-III, and mecA, which provide resistance to macrolide, aminoglycoside, and beta-lactam antibiotics, respectively; Wailuku River (LUU7) which contains the blaZ gene (beta-lactam resistance) (Gerken et al. [2021]). Richardson’s Beach Park (R113) and Onekahakaha (ONE9) which is known for its virulence factors (hlgA, hlgB, hlgC, lukD, and lukE).
as §1

The test system of another data set is S. aureus NEWMAN. Described as above. Type of data set: cell-based, Staphylococcus aureus. Conditions: Staphylococcus aureus; S. aureus NEWMAN, Gram-positive; read-out: MIC.
Excerpt: as §2, §1

In a further data set the test system is MRSA HBP10. The description is as above. Type of data set: cell-based, Staphylococcus aureus. Conditions: Staphylococcus aureus; MRSA HBP10, Gram-positive; read-out: MIC.
Excerpt: as §2, §1

Another data set concerns MRSA POB2. The description is as above. Type of data set: cell-based, Staphylococcus aureus. Conditions: Staphylococcus aureus; MRSA POB2, Gram-positive; read-out: MIC.
Excerpt: as §2, §1

The subject of data set [1] is A549 human lung carcinoma epithelial cells. The experiment in a line: SRB cytotoxicity assay, A549 cells. Conditions: SRB assay, 72 h, highest concentration tested 100 µg/ml. The method, then: After incubation, cells were fixed with trichloroacetic acid (Cat. No. T4885, Sigma-Aldrich, USA), stained with SRB (Cat. No. S9012, Sigma-Aldrich, USA), and the absorbance was measured at 515 nm. Percent cell death was calculated using the following equation: % Cell death=(ODc−OD0)‐(ODs−OD0)/(ODc−OD0)×100
OD0 = Optical density of cells before treatment (baseline reading).
ODC = Optical density of untreated control cells after 72 h.
ODS = Optical density of cells treated with the test sample after 72 h.
Non-linear regression analysis was performed using GraphPad Prism to calculate the IC50 value. This value reflects the concentration needed to inhibit cell growth by 50%.
All data are presented as mean ± standard error of the mean (SEM) and were collected from three separate experiments. Statistical analyses were conducted using Student’s t-test or ANOVA, followed by Tukey’s multiple comparisons test. Significance is indicated by *p < 0.05, **p < 0.01, and ***p < 0.001.
On the technique in general: In SRB staining, fixed cells bind dye roughly in proportion to their protein.

The subject of data set [2] is LPS-induced nitric oxide (NO) production in RAW 264.7 cells. The data set can be described thus: Inhibition of NO generation in LPS-induced RAW 264.7 cells (Griess). Type of data set: cell-based, murine. Conditions: RAW 264.7 cells, LPS-induced, highest concentration 50 μg/mL. As to the method: The nitrite concentration in the culture medium was measured to indicate nitric oxide (NO) production as previously described (Min et al. [2009]). The murine macrophage RAW 264.7 cell line was obtained from ATCC, Manassas, VA, USA, and maintained in Dulbecco’s modified Eagle’s medium supplemented with 10% heat-inactivated FBS (Cat. No. A5670801, Gibco BRL Co, Grand Island, NY, USA), penicillin G (100 units/mL) (Cat. No. P7794, Sigma-Aldrich, USA), streptomycin (100 µg/mL) (Cat. No. S9137, Sigma-Aldrich, USA), and L-glutamine (2 mM) (Cat. No. 25030081, Gibco BRL Co, Grand Island, NY, USA). In brief, RAW 264.7 cells were seeded at a density of 4 × 10^4 cells/well in phenol red-free media (Cat. No. 11835030, Gibco, USA) in a 96-well plate, and incubated in a humidified incubator with 5% CO2 at 37 °C for 24 hr. […] The concentration of nitric oxide production was assessed using the Griess reagent, which consists of a 1:1 (v/v) mixture of 1% sulfanilamide (Cat No. A13001, Alfa Aesar, Massachusetts, USA) in H3PO4 and N-(1-naphthyl)ethylenediamine dihydrochloride (Cat. No. 102397, MP Biomedicals, USA). Absorbance was recorded with a microplate reader (SynergyMx, BioTeK, Winooski, VT, USA) at 540 nm. A standard curve was created using sodium nitrite (1–100 μM) (Cat. No. 44227, Alfa Aesar, Massachusetts, USA). A sulforhodamine B (SRB) assay was employed to assess the cellular viability of the samples with RAW 264.7 cells under a similar experimental setup. The final % inhibition of NO production was adjusted based on cell viability.
In general terms: The Griess reaction detects nitrite, a stable product of nitric oxide.

The next data set concerns S. aureus ONE9. The experiment in a line: Antibacterial MIC, broth microdilution with resazurin. Type of data set: cell-based. Conditions: Staphylococcus aureus; S. aureus ONE9, Gram-positive; read-out: MIC.
Excerpt: as §2, §1

The subject of a further data set is E. coli. Described as above. Conditions: Escherichia coli, Gram-negative. Type of data set: cell-based.
Excerpt: as §2, §1

Another data set deals with MRSA USA300. Described as above. Type of data set: cell-based. Conditions: Staphylococcus aureus; MRSA USA300, Gram-positive; read-out: MIC.
Excerpt: as §2, §1

In a further data set the test system is MSSA R113. The description is as above. Type of data set: cell-based. Conditions: Staphylococcus aureus; MSSA R113, Gram-positive; read-out: MIC.
Excerpt: as §2, §1

The test system of a further data set is MSSA LUU7. The data set is described as above. Conditions: Staphylococcus aureus; MSSA LUU7, Gram-positive; read-out: MIC. The class given is cell-based.
Excerpt: as §2, §1

Another data set has as its system S. aureus 8325-4. The data set is described as above. The class given is cell-based. Conditions: Staphylococcus aureus, 83254; S. aureus 8325-4, Gram-positive; read-out: MIC.
Excerpt: as §2, §1

Data set [3] relates to ROS/RNS generation in RAW 264.7 cells. The data set can be described thus: Intracellular ROS/RNS levels in LPS-induced RAW 264.7 cells (H2DCF-DA). Type of data set: cell-based. Conditions: Mus musculus, RAW264.7; RAW 264.7 cells, H2DCF-DA dye, LPS 1 μg/mL; read-out: IC50, inhibition of LPS-induced ROS/RNS generation. The method, then:
To measure the formation of intracellular ROS and RNS, we utilized the fluorogenic dye 2′,7′-dichlorodihydrofluorescein diacetate (Cat. No. 4091-99-0, H2DCF-DA, Abcam, Boston, MA, USA). This dye detects hydrogen peroxide, peroxyl radicals, and peroxynitrite anions (Kwon et al. [2019]). In brief, RAW 264.7 cells were seeded into a black 96-well plate (Cat. No. 165305, Thermo Fisher, USA) at 4 × 10^4 cells per well and incubated for 24 hr at 37 °C in 5% CO2. Afterward, the cells were treated with or without a sample for 4 hr before adding 1 μg/mL LPS (Cat. No. 00-4976-93, Thermo Fisher, USA) for 20 hr. Once this incubation was complete, the cells were washed twice with fetal bovine serum (FBS)-free media (Cat. No. A5256701, Thermo Fisher, USA) and stained with 10 μM H2DCF-DA (Cat. No. D399, Thermo Fisher, USA) in FBS-free media for 30 min at 37 °C, protected from light. Next, the dye-containing media was discarded, and the cells were washed twice with fresh serum-free media. The relative fluorescent intensity of the cells was measured using a fluorescence plate reader (Synergy H1, BioTeK, Winooski, VT, USA) with excitation/emission at 485 nm/535 nm. Curcumin (Cat. No. C1386-5G, Millipore Sigma, Burlington, MA, USA), a natural phenolic compound with antioxidant activity, was used as positive control. All samples were tested in triplicates. A sulforhodamine B (SRB) assay was conducted to assess cellular viability under a similar experimental setup. The final percentage of inhibition of ROS/RNS generation was calibrated using the % of cell viability.

Consider `Nc1cc[nH]c(=O)n1` [Compound 3, cytosine], for which the MIC in the data set on S. aureus CART817, in the data set on S. marcescent, in the data set on S. aureus NEWMAN, in the data set with MRSA HBP10, with MRSA POB2 and in the data set with S. aureus ONE9 was 128 µg/mL (≈ 1150 µM) in each case. In addition, the MIC in the data set on E. coli, in the data set on MRSA USA300, in the data set with MSSA R113, in the data set on MSSA LUU7 and with S. aureus 8325-4 was 128 µg/mL (≈ 1150 µM) throughout. For the same compound, the “cytotoxic response against A549 cells (in words)” value in [1] is reported as “no cytotoxic response”. Also, the “NO inhibitory activity (in words)” value in data set [2] is listed as “no significant NO inhibitory activity”.
Turning to `COc1cc(/C=C/C(=O)CC(=O)/C=C/c2ccc(O)c(OC)c2)ccc1O` [Curcumin, reference compound], the IC50 in data set [3] turned out to be 7.6 ± 0.1 µM.

What is called MIC is the lowest concentration that inhibits growth of the organism.

The values are drawn from PMC12203697, “Bioactive constituents from the edible seaweed Halymenia hawaiiana (Rhodophyta)” (Pharmaceutical Biology, 2025).
